According to patent US6620422B1, “Compositions containing a peptide and polylactic-glycolic acid suitable for preparing subcutaneous implants with an extended release period” (Mediolanum Farmaceutici S.p.A., priority 1998, dated 2003):

Assay: physchem

- pKa (pKa): 9.7
- pKa (pKa (first value)): 6.15
- pKa (pKa (third printed value)): 12
SMILES: CCNC(=O)[C@@H]1CCCN1C(=O)[C@H](CCCNC(=N)N)NC(=O)[C@H](CC(C)C)NC(=O)[C@@H](Cc1c(C)[nH]c2ccccc12)NC(=O)[C@H](Cc1ccc(O)cc1)NC(=O)[C@H](CO)NC(=O)[C@H](Cc1c[nH]c2ccccc12)NC(=O)[C@H](Cc1c[nH]cn1)NC(=O)[C@@H]1CCC(=O)N1 [avoreline, 5-oxo-L-prolyl-L-histidil-L-tryptophil-L-seryl-L-tyrosil-2-methyl-D-tryptophil-L-leucyl-L-arginyl-N-ethyl-prolylamide]
